Assay results from article PMC11912270, “Synthesis and SAR Studies of Acyl-Thiourea Platinum(II) Complexes Yield Analogs with Dual-Stage Antiplasmodium Activity” (ACS Medicinal Chemistry Letters, 2025).
Several values for one entry are separate records, joined by “and”; a condition that tells them apart may be missing. Equal values may be shown once.

Legend:
[1] = Kinetic solubility by HPLC (pH 6.5); settings: pH 6.5; for Aqueous solubility pH 6.5: kinetic, HPLC
Procedure: 1.7. Kinetic solubility by HPLC (pH 6.5)
Solubility was measured at pH 6.5 using an adapted miniaturized shake-flask method, in 96-well plate format.4,5 Briefly, 4 µL of a 10 mM stock in DMSO was added to a 96-well plate and evaporated using a GeneVac system. Phosphate buffer pH 6.5 was then added to the wells […]
At the end of this incubation, the […]
in the analysis plate. Analysis was then performed by HPLC-DAD and the solubility of each sample was determined from the corresponding calibration curve. […]

Cyclic voltammetry = format: physicochemical; settings: 0.1 V/s; for Epa1: anodic peak potential; for Epc1: cathodic peak potential
Excerpt: It is known that Fe^2+/Fe^3+ redox chemistry has an important role in the bioactivity of ferrocene derivatives.[33] The production of reactive oxygen species (ROS) is one of the modes of action of ferroquine and other ferrocene derivatives[34] and is linked to the correlation between their bioactivity and electrochemical behavior. We determined whether a similar correlation could be made for the mixed-ligand platinum(II) complexes reported herein given that metal centers have the potential to be oxidized and reduced. The electrochemistry of the complexes was studied using cyclic voltammetry (CV), which uses a triangular potential waveform. The CV experiments were performed in either dry MeOH or DMF containing tetrabutylammonium chloride (TBACl) as the supporting electrolyte. The working electrode was glassy carbon with a platinum wire as the counter electrode and Ag/AgCl as the reference. The anodic (Epa) and cathodic (Epc) peak potentials at 0.1 V/s and half-wave potentials (E1/2) were measured (Table 3). All of the tested complexes undergo reversible one-electron Pt^2+/Pt^+ reductions (Figures S38–S46). Complexes C2, C4, and C8 undergo a second nonreversible reduction (Epc2), which is most likely ligand-based and linked to reductions of the substituent on the bpy. Looking at SAR2, the more electron-withdrawing the substituent, the […] the E1/2 (V vs Fe/Fe^+) value was. This trend was expected, as a more electron-withdrawing substituent reduces the electron density around the metal center, making it easier for the metal to be reduced from Pt^2+ to Pt^+. […] This is also the case for other bpy-containing platinum(II) complexes that only undergo reductions.[35],[36] […]
For the cyclic voltammetry experiments a solution of the test compound (1 x 10-3) in DMSO (3 mL) is added to the electrolyte solution (0.1 M tetrabutylammonium chloride (TBACl) in DMSO). The electrochemical measurements were obtained using a Basi Epsilon Eclipse Electrochemical Analyzer Potentiostat and the CV graphs were generated using Excel. The working electrode was glassy carbon (GC) with platinum wire as the counter electrode (CE) and Ag/AgCl as the reference. […]

PfNF54 ABS parasites = assay: SYBR Green I-based proliferative assay, PfNF54 ABS parasites; format: cell-based, Plasmodium falciparum; settings: for IC50: ABS, SYBR Green I, 96 h, mean ± S.E., N = 3 (no S.E.: N = 1)
Procedure: (§1) The parasites were incubated under drug […]
(§2) incubation, parasite survival was determined by adding equal volumes of parasite suspension (100 µL) and SYBR Green I lysis buffer (0.2% µL/mL of 10 000x SYBR Green I, 20 mM Tris-HCl, pH 7.5, 5 mM EDTA, 0.008% saponin (w/v) and 0.08% Triton x-100). This was incubated for 1 hour at room temperature in the dark. […]

[2] = test system: early-stage gametocytes (NF54-PfS16-GFP-Luc); assay: Luciferase reporter assay, early-stage gametocytes; format: cell-based, Plasmodium falciparum; settings: for EG (% inhibition) 1 µM / EG (% inhibition) 5 µM: single biological repeat; for IC50: early (II/III) gametocytes, luciferase, 48 h, read-out: EG IC50
Procedure: (§3) All the complexes were tested for their early- and late-stage gametocyte activity in a dual-point assay (1 μM and 5 μM). […]
(§4) 1.5.In vitro activity against gametocyte stages
(§5) PfNF54 gametocytes were prepared and isolated according to the method reported by Reader […]
(§6) The in vitro gametocyte activity of the synthesized complexes was determined using a luciferase reporter line-based assay.
(§7) NF54-PfS16-GFP-Luc parasites were used for the stage-specific assessment of gametocytocidal activity. Early-stage gametocyte (stage I-III) experiments were performed on day 5 (representing >90% of early-stage and late-stage gametocyte (stages IV/V) experiments were performed on day 10. In each experiment, assays were set up with the use of 2-3% […]
(§8) Luciferase activity was determined in 30 µL parasite lysates by adding luciferin substrate (30 µL) (Promega Luciferase Assay System) at room temperature. […]

[3] = test system: late-stage gametocytes (NF54-PfS16-GFP-Luc); assay: Luciferase reporter assay, late-stage gametocytes; format: cell-based, Plasmodium falciparum; settings: for LG (% inhibition) 1 µM / LG (% inhibition) 5 µM: single biological repeat; for IC50: late (IV/V) gametocytes, luciferase, 48 h, read-out: LG IC50
Procedure: as §3, §4, §5, §6, §7, §8

[4] = test system: Chinese hamster ovary (CHO) cell line; assay: MTT cytotoxicity assay; format: cell-based; settings: cytotoxicity, MTT, 48 h; N, n = 1, 3; read-out: CHO IC50
Procedure: 1.6.In vitro cytotoxicity assay
A 3-(4,5-dimethylthiazol-2-yl)-2,5-diphenyltetrazoliumbromide (MTT) assay was used to screen the metal complexes against the mammalian Chinese hamster ovarian (CHO) cell line.
A stock solution of each compound (2 mg/mL) in DMSO was prepared and kept at -20 °C until needed. Emetine was used as a reference drug. A starting concentration of 100 µg/mL was used, and serially diluted ten-fold using a complete medium to give the lowest concentration of 0.001 µg/mL (6 dilutions). The plates containing the CHO cells under drug pressure were […]
Plates containing the drug and cell suspension were developed by adding 25 μL of sterile MTT (Thermo Fisher Scientific) (25 µL) to each well, followed by 4 h […]
of incubation at room temperature in the dark. The plates were then centrifuged, and the supernatant was removed via aspiration. Sample absorbance was read at a wavelength of 540 […]
analysis via GraphPad Prism v.4.0 software. The IC50 values were determined for each compound were determined from the dose-response curves. […]

ABS parasites = assay: Dual point activity against ABS parasites; format: cell-based, Plasmodium falciparum; settings: single biological repeat
Excerpt: Table S2: Dual point activity of platinum(II) complexes against ABS parasites, early- and late-
stage gametocytes. Values are averaged from technical triplicates performed for a single

PfK1 ABS parasites = format: cell-based, Plasmodium falciparum; settings: for IC50: ABS, SYBR Green I, 96 h, mean ± S.E.; for RI (resistance index): RI = PfK1 IC50/PfNF54 IC50
Procedure: as §1, §2

SMILES	Aqueous solubility pH 6.5 [1] [μM]	Epa1 (Cyclic voltammetry)	Epc1 (Cyclic voltammetry)	IC50 (PfNF54 ABS parasites) [µM]	EG (% inhibition) 1 µM [2] [% inhibition]	EG (% inhibition) 5 µM [2] [% inhibition]	IC50 [2] [µM]	LG (% inhibition) 1 µM [3] [% inhibition]	LG (% inhibition) 5 µM [3] [% inhibition]	IC50 [3] [µM]	IC50 [4] [µM]	ABS (% inhibition) 1 µM (ABS parasites) [% inhibition]	ABS (% inhibition) 5 µM (ABS parasites) [% inhibition]	fold improvement in PfNF54 activity compared to C2 (PfNF54 ABS parasites; vs 4,4'-dimethyl complex C2)	IC50 (PfK1 ABS parasites) [µM]	RI (resistance index) (PfK1 ABS parasites)	fold decrease in PfNF54 activity compared to C2 (PfNF54 ABS parasites; vs 4,4'-dimethyl complex C2) [fold]	solubility at 24 h ([1]; phosphate buffer) [µM]
CC(C)(C)c1cc[n+]2c(c1)-c1cc(C(C)(C)C)cc[n+]1[Pt-2]21[O+]=C(c2ccccc2)N=C(N(CCO)CCO)[S]1.[Cl-] [C1]	95	–1.233 V	–1.127 V															
OCCN(CCO)C1=NC(c2ccccc2)=[O+][Pt-2]2([S]1)[n+]1ccc(O)cc1-c1cc(O)cc[n+]12.[Cl-] [C5]				> 5	0.0	0.0	> 20	0.0	0.5	> 20	> 50	0.0	11.0					
OCCN(CCO)C1=NC(c2ccccc2)=[O+][Pt-2]2([S]1)[n+]1ccc(Cl)cc1-c1cc(Cl)cc[n+]12.[Cl-] [C7]				> 5	2.2	4.1	> 20	0.0	0.4	> 20	> 50	2.7	57.3					
CNC(=O)c1cc[n+]2c(c1)-c1cc(C(=O)NC)cc[n+]1[Pt-2]21[O+]=C(c2ccccc2)N=C(N(CCO)CCO)[S]1.[Cl-] [C9]				> 5	0.0	4.5	> 20	0.0	2.4	> 20	> 50	0.0	24.5					
COC(=O)c1cc[n+]2c(c1)-c1cc(C(=O)OC)cc[n+]1[Pt-2]21[O+]=C(c2ccccc2)N=C(N(CCO)CCO)[S]1.[Cl-] [C10]	<5			> 5	3.7	4.2	> 20	0.6	6.1	> 20	> 50	7.11	17.3					
Cc1ccc(C2=[O+][Pt-2]3([S]C(N(CCO)CCO)=N2)[n+]2ccc(C(C)(C)C)cc2-c2cc(C(C)(C)C)cc[n+]23)cc1.[Cl-] [C11]		–1.239 V	–1.128 V															
COc1ccc(C2=[O+][Pt-2]3([S]C(N(CCO)CCO)=N2)[n+]2ccc(C(C)(C)C)cc2-c2cc(C(C)(C)C)cc[n+]23)cc1.[Cl-] [C12]		–1.247 V	–1.133 V															
CC(C)(C)c1ccnc(-c2cc(C(C)(C)C)ccn2)c1.OCCN(CCO)C(=S)N=C([O][Pt+])c1ccc(Cl)cc1.[Cl-] [C13]		–1.233 V	–1.119 V															
Cc1ccc(-c2ccc(C)cn2)nc1.OCCN(CCO)C(=S)N=C([O][Pt+])c1ccccc1.[Cl-] [C14]				0.241 ± 0.04	0.0	0.0		39.4	56.6		> 50			5 fold and 6 fold	0.886 ± 0.059	3.7		
Cc1cccc(-c2cccc(C)n2)n1.OCCN(CCO)C(=S)N=C([O][Pt+])c1ccccc1.[Cl-] [C15]				2.91	2.8	43.9	9.51	54.8	84.0	1.41	5	0.0	89.6		2.76	0.9	2	
COC(=O)[C@H]1[C@H]2C[C@@H]3c4[nH]c5cc(OC)ccc5c4CCN3C[C@H]2C[C@@H](OC(=O)c2cc(OC)c(OC)c(OC)c2)[C@@H]1OC [Reserpine, reference compound]																		< 5
